What was measured:
[1] = target: T1, Methionine--tRNA ligase, cytoplasmic (Homo sapiens, UniProt P56192); assay: Inhibitory activity against human methionyl-tRNA synthetase (hMetRS).
T1 sequence (P56192 whole entry): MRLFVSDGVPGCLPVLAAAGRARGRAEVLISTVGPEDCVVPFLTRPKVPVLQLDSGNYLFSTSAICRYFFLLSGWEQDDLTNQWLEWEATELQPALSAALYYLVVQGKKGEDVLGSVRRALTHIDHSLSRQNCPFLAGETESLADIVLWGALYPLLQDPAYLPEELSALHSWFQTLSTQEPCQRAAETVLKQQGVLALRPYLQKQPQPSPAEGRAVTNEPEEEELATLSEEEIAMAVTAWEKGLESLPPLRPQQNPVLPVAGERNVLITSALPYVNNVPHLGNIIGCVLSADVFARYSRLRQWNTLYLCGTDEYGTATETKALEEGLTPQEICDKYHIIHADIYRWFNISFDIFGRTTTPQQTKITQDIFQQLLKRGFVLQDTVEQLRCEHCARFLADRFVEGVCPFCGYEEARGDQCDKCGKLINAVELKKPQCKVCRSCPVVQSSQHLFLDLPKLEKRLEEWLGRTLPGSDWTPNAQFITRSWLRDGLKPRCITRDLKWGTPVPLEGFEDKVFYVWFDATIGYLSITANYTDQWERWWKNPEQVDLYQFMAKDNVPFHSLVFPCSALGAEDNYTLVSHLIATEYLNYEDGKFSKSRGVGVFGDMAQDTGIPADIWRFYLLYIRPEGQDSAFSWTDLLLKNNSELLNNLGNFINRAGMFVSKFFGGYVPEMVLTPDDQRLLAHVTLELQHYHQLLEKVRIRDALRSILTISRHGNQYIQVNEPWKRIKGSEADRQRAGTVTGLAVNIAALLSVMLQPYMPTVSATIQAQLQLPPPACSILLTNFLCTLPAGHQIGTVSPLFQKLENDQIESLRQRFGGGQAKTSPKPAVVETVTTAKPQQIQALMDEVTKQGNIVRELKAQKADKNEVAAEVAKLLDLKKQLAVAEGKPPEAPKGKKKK

[2] = test system: Staphylococcus aureus subsp. aureus MW2; assay: Selectivity ratio for inhibition of human Methionyl-tRNA synthetase to that of Staphylococcus aureus Methionyl-tRNA synthetase.

`O=C(NCc1nn[nH]n1)c1cc(-c2ccc(-c3ccc(Cl)cc3Cl)cc2)n(-c2cccnc2)n1` gave an IC50 [1] of 13.8 µM and a Ratio [2] of 106.
For `O=C(O)c1cc(-c2ccc(-c3ccc(Cl)cc3Cl)cc2)n(-c2ccc(Cl)cc2Cl)n1`, the IC50 [1] was 11.9 µM and the Ratio [2] was 2.
`O=C(O)c1cc(-c2ccc(-c3ccc(F)cc3)cc2)n(-c2ccc(Cl)cc2Cl)n1` showed an IC50 [1] of 41.3 µM and a Ratio [2] of 1.
Compound `O=C(O)c1cc(-c2ccc(-c3ccc(Cl)cc3Cl)cc2)n(CCO)n1` has an IC50 [1] of over 100 µM and a Ratio [2] of over 22.
For `CCn1nc(C(=O)O)cc1-c1ccc(-c2ccc(Cl)cc2Cl)cc1`, the IC50 [1] was 46.4 µM and the Ratio [2] was 45.
Work on `O=C(O)c1cc(-c2ccc(-c3ccc(Cl)cc3Cl)cc2)n(Cc2ccncc2)n1` yielded an IC50 [1] of 26.2 µM and a Ratio [2] of 52.
With `O=C(O)c1cc(-c2ccc(-c3ccc(Cl)cc3Cl)cc2)n(-c2ccccn2)n1` the IC50 [1] was over 100 µM and the Ratio [2] was over 159.
With `O=C(O)c1cc(-c2ccc(-c3ccc(F)c(Cl)c3)cc2)n(-c2ccc(Cl)cc2Cl)n1` the IC50 [1] was 20.9 µM and the Ratio [2] was 1.
For `Clc1ccc(-c2ccc(-c3cc(-c4nnn[nH]4)nn3-c3cccnc3)cc2)c(Cl)c1`, the IC50 [1] was 10.6 µM and the Ratio [2] was 82.
`O=C(O)Cn1nc(C(=O)O)cc1-c1ccc(-c2ccc(Cl)cc2Cl)cc1` gave an IC50 [1] of 100 µM and a Ratio [2] of 29.
`O=C(O)c1cc(-c2ccc(-c3ccc(Cl)cc3Cl)cc2)n(-c2cccnc2)n1` showed an IC50 [1] of 47 µM and a Ratio [2] of 157.
In the case of `O=C(O)c1cc(-c2ccc(-c3ccc(Cl)cc3Cl)cc2)n(Cc2cccnc2)n1`, the IC50 [1] is reported as over 100 µM and the Ratio [2] is reported as over 152.
For `O=C(O)c1cc(-c2ccc(-c3ccc(Cl)cc3Cl)cc2)nn1Cc1ccccn1`, the IC50 [1] was 22.3 µM and the Ratio [2] was 8.
In the case of `O=C(O)c1cccc(-c2ccc(-c3cc(C(=O)O)nn3-c3ccc(Cl)cc3Cl)cc2)c1`, the IC50 [1] is reported as 40.9 µM and the Ratio [2] is reported as 1.
`NC(=O)c1cc(-c2ccc(-c3ccc(Cl)cc3Cl)cc2)n(-c2ccccn2)n1` was tested, and the IC50 [1] was over 100 µM and the Ratio [2] was over 34.
Work on `COc1ccc(-n2nc(C(=O)O)cc2-c2ccc(-c3ccc(Cl)cc3Cl)cc2)cc1` yielded an IC50 [1] of over 100 µM and a Ratio [2] of over 10.
Compound `O=C(O)c1cc(-c2ccc(-c3ccccc3)cc2)n(-c2ccc(Cl)cc2Cl)n1` has an IC50 [1] of 44.3 µM and a Ratio [2] of 1.
`O=C(O)c1cc(-c2ccc(-c3ccc(C(F)(F)F)cc3)cc2)n(-c2ccc(Cl)cc2Cl)n1` was tested, and the IC50 [1] was 33.5 µM and the Ratio [2] was 1.

— ChEMBL document CHEMBL1136090, “Discovery of a potent and selective series of pyrazole bacterial methionyl-tRNA synthetase inhibitors” (Bioorg Med Chem Lett, 2003)
